From patent publication EP0802730B1, “PESTICIDAL COMPOUNDS” (BTG INTERNATIONAL LIMITED, priority 1995, dated 1996) come the findings set out here.

Assay [1] concerns Myzus persicae, extremely resistant strain (794Jz). In words: Aphid dip test, resistant strain. Format: in vivo. Particulars: read-out: % mortality corrected for control data.
Assay [2] has as its system resistant strain of whitefly (Ned 1/2). In words: Whitefly vial test, resistant strain Ned 1/2. The class given is in vivo. The settings on record: Bemisia tabaci, 48 h, read-out: BT (Ned 1/2) (LC50). As to the method: Acetone solutions (0.100 ml) of the test compounds were placed in 10 ml glass vials and evaporated with rotation to deposit a film of the compound. Thirty adult whiteflies were placed inside the vial, then after 60 minutes, the treated insects were transferred onto untreated cotton leaf discs which were kept moist on a bed of agar gel. The temperature was maintained at 25°C and mortality assessed after 48 hours. Three replicates were used at each of 5 to 7 dose levels per compound. LC50 values (ppm solution) were calculated by using a computer software package ("Polo-PC available from LeOra Software, Berkeley, California) (See M.R. Cahill and B. Hackett in Proceedings Brighton Crop Protection Conference, 1992). The test was carried out using a susceptible strain of whitefly (SUD-S) which was collected in Sudan in 1978 from cotton.
The whitefly activity test with (BT (SUD-S)) was repeated using a resistant strain of whitefly (Ned 1/2).

≈ marks a conversion by molar mass, not a printed value.

Turning to `CCC(C)(C)C1=C(O)C(=O)c2ccccc2C1=O` [Example 1, 2-(1,1-dimethylpropyl)-3-hydroxynaphthalene-1,4-dione], in assay [1], the mortality at 100 ppm stood at 10% and the mortality at 250 ppm was determined as 43%.

As to `CCC(C)(C)C1=C(OC(C)=O)C(=O)c2ccccc2C1=O` [Example 2, 2-(1,1-dimethylpropyl)-3-ethanoyloxy-naphthalene-1,4-dione], in assay [1], the mortality at 100 ppm was determined as 17% and the mortality at 250 ppm stood at 47%.

For `CC(C)(C)C1=C(O)C(=O)c2ccccc2C1=O` [Example 3, 2-(t-butyl)-3-hydroxy-naphthalene-1,4-dione], in assay [1], the mortality at 40 ppm came out at 10%, the mortality at 100 ppm came out at 13% and the mortality at 250 ppm is 87%.

Turning to `CC1(C2=C(O)C(=O)c3ccccc3C2=O)CCCCC1` [Example 25, 2-hydroxy-3-(1'-methylcyclohexyl)-naphthalene-1,4-dione], the LC50 in assay [2] turned out to be 0.1 µg/mL (≈ 0.37 µM). Further, in assay [1], the mortality at 40 ppm was determined as 10%, the mortality at 100 ppm amounted to 27% and the mortality at 250 ppm came to 79%.

`CC(C)(C)C1CCC(C2=C(O)C(=O)c3ccccc3C2=O)CC1` (stereo not drawn) [Compound B, 2-hydroxy-3-(4-t-butylcyclohexyl)-naphthalene-1,4-dione, reference compound]: in assay [2], the LC50 was found to be 100 µg/mL (≈ 320 µM).

One may read the mortality as the share of the test organisms that died.
